Data published in patent US20220096515A1, “Methods and Formulations for Preventing Neurological or Psychiatric Disorders” (Huntington Medical Research Institutes, priority 2020, published 2022).
Each block holds one molecule with its values, some of them ahead of it.

Assays:
P2Y13 receptor = target: T1, P2Y13 receptor (Mus musculus, UniProt Q9D8I2); assay: Calcium imaging, P2Y13 agonist; assay type: cell-based; conditions: 100 μM; periventricular endothelial cells
T1 construct: imaged continuously before and after αβ-meATP, Bz-ATP and 2Me-SADP application (100 μM); endogenous in cells; host or cells: Primary periventricular endothelial cells from mouse embryonic telencephalon
T1 sequence (Q9D8I2 1-337): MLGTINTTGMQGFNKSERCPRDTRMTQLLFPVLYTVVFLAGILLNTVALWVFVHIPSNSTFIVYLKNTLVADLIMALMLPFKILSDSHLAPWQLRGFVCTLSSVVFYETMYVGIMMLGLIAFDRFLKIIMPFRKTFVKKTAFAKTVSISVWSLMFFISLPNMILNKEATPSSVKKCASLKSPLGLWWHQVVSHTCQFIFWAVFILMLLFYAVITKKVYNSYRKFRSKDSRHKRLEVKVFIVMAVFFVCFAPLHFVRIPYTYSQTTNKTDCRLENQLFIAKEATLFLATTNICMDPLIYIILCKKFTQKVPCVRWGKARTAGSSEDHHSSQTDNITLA
Method: (§1) Calcium imaging: For Ca^2+ assays, periventricular endothelial cells (1 million cells per assay) were incubated with the Ca^2+ indicator dye FluoForte AM according to manufacturer's instructions (Enzo Life Sciences), loaded into the chamber of an FSX 100 microscope and imaged continuously before and after αβ-meATP, Bz-ATP and 2Me-SADP application (100 μM). Fluorescence micrographs were digitalized and results were expressed as change in fluorescence over baseline fluorescence.
(§2) An important aspect that influences endothelial cell proliferation is Ca^2+ influx, which is important for cell cycle progression in the neocortex. GABAA receptor activation in Gabrb3^fl/fl periventricular endothelial cells leads to an influx of Ca^2+ that influences cell proliferation. However, in Gabrb3^ECKO periventricular endothelial cells, due to the deletion of the β3 subunit, the GABAA receptors are dysfunctional. So, the autocrine feedback loop of GABA acting on GABAA receptors will not work in these Gabrb3^ECKO endothelial cells to cause Ca^2+ influx, even if GABA secretion is restored. […] Therefore, P2X4 expression at both mRNA and protein levels in periventricular endothelial cells were evaluated, prepared after the six-day saline and NAD^+ treatment paradigm (FIGS. 11J-11O). […]

P2X4 receptor [1] = target: T2, P2X4 receptor (Mus musculus, UniProt Q9JJX6); assay: P2X4 activation/inactivation in wild type endothelial cells: Daxx mRNA and GABA ELISA; assay type: cell-based; conditions: cultured wild type periventricular endothelial cells
T2 construct: endogenous in cells; host or cells: Primary periventricular endothelial cells from mouse embryonic telencephalon (CD1 wild type; Gabrb3 fl/fl; Gabrb3 ECKO with or without NAD+)
T2 sequence (Q9JJX6 1-388): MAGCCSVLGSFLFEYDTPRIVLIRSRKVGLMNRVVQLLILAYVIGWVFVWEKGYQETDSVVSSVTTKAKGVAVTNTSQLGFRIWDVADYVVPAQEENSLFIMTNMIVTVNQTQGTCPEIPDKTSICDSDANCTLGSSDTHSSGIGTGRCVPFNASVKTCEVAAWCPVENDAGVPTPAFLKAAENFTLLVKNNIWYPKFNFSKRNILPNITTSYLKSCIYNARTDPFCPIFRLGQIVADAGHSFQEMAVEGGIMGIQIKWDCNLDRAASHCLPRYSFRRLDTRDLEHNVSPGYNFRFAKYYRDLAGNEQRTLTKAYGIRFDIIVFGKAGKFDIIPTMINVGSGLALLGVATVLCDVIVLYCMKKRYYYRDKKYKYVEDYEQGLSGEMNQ
Method: Quantitative real-time PCR: RT was performed by using iScript Reverse Transcription Supermix kit (Bio-Rad). PCR reactions were run on a CFX96 Touch Real Time PCR (Bio-Rad) with SsoAdvanced™ Universal SYBR® Green Supermix (Bio-Rad). Primers for qPCR (Daxx, P2x4, P2x7, P2y13, Tek, vwf, F2r, Sirt2, Nos1, Nrp1, Pax6, Gad1, Gad2, Grin2a, Trpm2, Trpc4 and Trpv6) were obtained from Thermo Fisher Scientific. The housekeeping gene Gapdh was used as a reference. The relative gene expression and subsequent fold changes among different samples were determined according to published methodology.
ELISA: Periventricular endothelial cells were prepared after the NAD^+ treatment paradigm, or after the treatment with purinergic receptor agonists/antagonists, and seeded in 12 well culture plates at 0.1×10^6 cells/well. Supernatants from endothelial cell cultures were collected after 96 hours and stored at −80° C. for ELISA. GABA concentrations were quantitatively determined by competitive ELISA according to the manufacturers' protocol (GABA Research ELISA kits, Labor Diagnostica Nord, Germany), and absorbance was measured using a multiplate microplate fluorescence reader (Molecular Devices, CA) at 450 nm.
(§3) An important aspect that influences endothelial cell proliferation is Ca^2+ influx, which is important for cell cycle progression in the neocortex. GABAA receptor activation in Gabrb3^fl/fl periventricular endothelial cells leads to an influx of Ca^2+ that influences cell proliferation. However, in Gabrb3^ECKO periventricular endothelial cells, due to the deletion of the β3 subunit, the GABAA receptors are dysfunctional. So, the autocrine feedback loop of GABA acting on GABAA receptors will not work in these Gabrb3^ECKO endothelial cells to cause Ca^2+ influx, even if GABA secretion is restored. In the absence of this mechanism, it was questioned whether the prenatal NAD^+ treatment was able to activate alternate mechanisms to trigger Ca^2+ influx in Gabrb3^ECKO endothelial cells. […] Therefore, P2X4 expression at both mRNA and protein levels in periventricular endothelial cells were evaluated, prepared after the six-day saline and NAD^+ treatment paradigm (FIGS. 11J-11O). P2X4 has been reported as the most abundantly expressed P2X receptor subtype in vascular endothelial cells from several tissues and its deficiency affects normal endothelial cell responses, such as Ca^2+ influx. However, P2X4 expression and functional significance in embryonic forebrain endothelial cells is unknown. […] To test whether P2X4 receptor activation on endothelial cells leads to an influx of Ca^2+, periventricular endothelial cells were incubated from the three groups in the presence of αβ-meATP that has been reported to show agonist activity at P2X receptors, including P2X4 (FIGS. 11N-11Q). […]

[2] = test system: periventricular endothelial cells isolated from E15 wildtype (CD1) forebrain; assay: Endothelial cell proliferation in culture (confluency, BrdU labeling index); assay type: cell-based, mouse; conditions: 30 μM and 100 μM
Method: Primary culture of endothelial cells and endothelial cell staining: Embryonic brains were dissected under a stereo-microscope, after the NAD^+ treatment paradigm and the telencephalon was removed. Pial membranes were peeled off. Telencephalon without pial membranes from the periventricular region was pooled. Purity of endothelial cell cultures was established with endothelial cell markers and determined to be one hundred percent. Isolation and culture of endothelial cells were performed according to published methodology. Periventricular endothelial cells were prepared from CD1 (wild type), saline-treated Gabrb3^fl/fl, saline-treated Gabrb3^ECKO, and NAD^+-treated Gabrb3^ECKO embryos. Endothelial cells were labeled with anti-biotinylated isolectinB4 (1:100, Sigma), anti-GABA (1:400, Sigma), anti-DAXX (1:100, Santa Cruz Biotechnology) and anti-P2X4 (1:100, Abclonal) followed by secondary detection with AlexaFluor conjugates (Invitrogen). DAPI (Invitrogen) was used to label nuclei. Images were taken on an FSX100 microscope (Olympus). 1 million cells were examined for each immunohistochemistry condition.
Endothelial cell proliferation and long-distance cell migration assay: To test for cell proliferation, CD1 periventricular endothelial cells (1 million cells per experiment) were incubated in the presence of the mitotic marker 5-bromo-2′-deoxyuridine (0.05% BrdU) with or without muscimol, for 1 hour to examine the impact on proliferation of these cells and processed for BrdU immunohistochemistry.
In one experiment, periventricular endothelial cells were isolated from E15 wildtype (CD1) forebrain and tested the effect of NAD^+ addition in vitro. Exogenous addition of 100 μM NAD^+ was able to initiate significant endothelial cell proliferation within 2 days of culture and a 35 mm culture dish was confluent within 4-6 days (FIGS. 2A-2D). This was an interesting observation, since untreated periventricular endothelial cells take approximately 12 days to reach confluency in 35mm dishes, in our well-established culture conditions. […] Vital elements of angiogenesis include effective endothelial cell proliferation, migration, sprouting, alignment, tube formation and branching. […] In some areas of the dish, the NAD^+-treated endothelial cells seemed to align and fold into tubular shapes (FIG. 2H), aspects that we have not seen in wild type or untreated periventricular endothelial cells in normal culture conditions.
Effects of NAD^+ addition to periventricular endothelial cells isolated from E15 wildtype (CD1) forebrain was more robust than GABA. (FIGS. 17A-17F) Phase contrast images of periventricular endothelial cells cultured from E15 CD1 forebrain at different time points in untreated conditions (FIGS. 17A-17B) or after plating with NAD^+ addition (100 μM; FIGS. 17C-17D) or GABA addition (5 μM; FIGS. 17E-17F). […] (FIG. 17G) All groups of periventricular endothelial cells were exposed to BrdU (1 mM BrdU per ml medium) for 1 hour followed by Isolectin B4/BrdU double labeling. Quantification of BrdU labeling indices; Data represents mean±SD (n=8, *P<0.05; Student's t-test).

P2X4 receptor [3] = target: T2, P2X4 receptor; assay: Calcium imaging, P2X receptor agonist; assay type: cell-based; conditions: 100 μM
Method: as §1, §3

P2X7 receptor = target: T3, P2X7 receptor (Mus musculus, UniProt Q9Z1M0); assay: Calcium imaging, P2X7 agonist; assay type: cell-based; conditions: 100 μM; periventricular endothelial cells
T3 construct: imaged continuously before and after αβ-meATP, Bz-ATP and 2Me-SADP application (100 μM); endogenous in cells; host or cells: Primary periventricular endothelial cells from mouse embryonic telencephalon
T3 sequence (Q9Z1M0 1-595): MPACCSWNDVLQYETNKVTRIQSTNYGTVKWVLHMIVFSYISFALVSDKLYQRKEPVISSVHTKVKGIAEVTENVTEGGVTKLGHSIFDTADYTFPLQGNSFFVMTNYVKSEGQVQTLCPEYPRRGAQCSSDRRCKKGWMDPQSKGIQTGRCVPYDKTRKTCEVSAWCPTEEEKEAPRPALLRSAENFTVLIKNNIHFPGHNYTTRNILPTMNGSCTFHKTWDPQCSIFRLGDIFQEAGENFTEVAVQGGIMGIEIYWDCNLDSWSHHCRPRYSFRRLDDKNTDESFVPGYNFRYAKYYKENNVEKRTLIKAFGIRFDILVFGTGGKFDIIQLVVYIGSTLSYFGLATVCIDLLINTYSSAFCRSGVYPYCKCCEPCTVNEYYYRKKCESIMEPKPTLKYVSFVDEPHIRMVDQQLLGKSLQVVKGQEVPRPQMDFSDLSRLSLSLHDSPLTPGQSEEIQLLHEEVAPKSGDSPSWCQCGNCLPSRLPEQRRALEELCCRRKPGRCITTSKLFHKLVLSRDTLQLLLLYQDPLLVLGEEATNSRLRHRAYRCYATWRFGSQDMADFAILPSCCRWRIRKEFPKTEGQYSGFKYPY
Method: as §1, §2

Molecule: CSc1nc(N)c2ncn([C@@H]3O[C@H](COP(=O)(O)OP(=O)(O)O)[C@@H](O)[C@H]3O)c2n1 [2Me-SADP]
- influx of Ca^2+ (P2Y13 receptor): produced an influx of Ca^2+

Molecule: O=C1CC(=O)N(c2cccc(-c3nc(=S)o[nH]3)c2)c2ccc3ccccc3c2N1 [+NP-1815-PX, NP-1815-PX]
- Daxx mRNA expression (P2X4 receptor [1]): increased Daxx expression
- GABA secretion by ELISA (P2X4 receptor [1]): reduced GABA secretion

Molecule: NCCCC(=O)O [GABA, reference compound]
- endothelial cell proliferation [2]: no notable effect on cell proliferation

Now from value to molecule, other results behind:

- Daxx mRNA expression (P2X4 receptor [1]): reduced Daxx expression
- GABA secretion by ELISA (P2X4 receptor [1]): increased GABA secretion
Molecule: Nc1ncnc2c1ncn2[C@@H]1O[C@H](COP(=O)(O)CP(=O)(O)OP(=O)(O)O)[C@@H](O)[C@H]1O [αβ-meATP]
- intracellular calcium (P2X4 receptor [3]; NAD^+-treated Gabrb3^ECKO endothelial cells): significant increase in intracellular calcium
- intracellular calcium (P2X4 receptor [3]; saline-treated Gabrb3^ECKO endothelial cells): no marked increase in intracellular calcium
- intracellular calcium (P2X4 receptor [3]; saline-treated Gabrb3^fl/fl endothelial cells): significant increase in intracellular calcium

- influx of Ca^2+ (P2X7 receptor): produced an influx of Ca^2+
Molecule: Bz-ATP
